Experimental data as given in ChEMBL document CHEMBL3797140, “Acridin-3,6-dialkyldithiourea hydrochlorides as new photosensitizers for photodynamic therapy of mouse leukemia cells” (Bioorg Med Chem, 2016).

What was measured:
[1] = Phototoxicity against mouse NIH/3T3 cells assessed as cell viability preincubated for 1 hr followed by 1.05 J/cm2 UV-A irradiation measured after 48 hrs by MTT assay; assay type: cell-based; conditions: NIH3T3, light or radiation study
[2] = Dark toxicity against mouse L1210 cells assessed as cell viability after 48 hrs by MTT assay; assay type: cell-based
L1210 = assay: Phototoxicity against mouse L1210 cells assessed as cell viability preincubated for 1 hr followed by 1.05 J/cm2 UV-A irradiation measured after 48 hrs by MTT assay; assay type: functional, cell-based; conditions: L1210, light or radiation study
[3] = Dark toxicity against mouse NIH/3T3 cells assessed as cell viability after 48 hrs by MTT assay; assay type: cell-based, NIH3T3

Compound: CCCCNC(=S)Nc1ccc2cc3ccc(NC(=S)NCCCC)cc3nc2c1
- IC50 [1]: 2600 nM
- IC50 at 48 h [2]: 6.6 µM
- IC50 (L1210): 520 nM
- IC50 at 48 h [3]: 32.7 µM

Compound: CCNC(=S)Nc1ccc2cc3ccc(NC(=S)NCC)cc3nc2c1
- IC50 [1]: 2800 nM
- IC50 at 48 h [2]: 12 µM
- IC50 (L1210): 900 nM
- IC50 at 48 h [3]: 40.2 µM
